{"source": "patent EP3048104A1", "about": "“AMORPHOUS AND CRYSTALLINE FORMS OF IDELALISIB AND PROCESS FOR FORMING THE SAME” (Sandoz AG, priority 2015, dated 2016)", "key": {"[1]": {"assay": "Solubility at pH 6.8", "format": "physicochemical", "conditions": "pH 6.8, aqueous buffer", "description": "The solubility of Forms I and II of idelalisib is very low. At pH 6.8 a solubility of about 70 mg/L was measured."}, "[2]": {"conditions": "pressure conditions typical for tablet preparation; cited from earlier work"}, "[3]": {"assay": "Solubility in water at 25°C", "format": "physicochemical"}, "[4]": {"assay": "Compression stability (KBr pellet die, XRPD analysis)", "format": "physicochemical", "conditions": "compressed for 4.5 days at 740 MPa", "description": "XRPD diffractograms were obtained with an X'Pert PRO diffractometer (PANalytical, Almelo, The Netherlands) equipped with a theta/theta coupled goniometer in transmission geometry, programmable XYZ stage with well plate holder, Cu K-alpha radiation source (wavelength 0.15418 nm) with a focusing mirror, a 0.5° divergence slit, a 0.02° soller slit collimator and a 0.5° anti-scattering slit on the incident beam side, a 2 mm anti-scattering slit, a 0.02° soller slit collimator, a Ni-filter and a solid state PIXcel detector on the diffracted beam side. The diffractogram was recorded at room temperature (25°C) at a tube voltage of 40 kV, tube current of 40 mA, applying a step size of 0.013° 2-Theta with 40 sec per step in the angular range of 2° to 40° 2-Theta. A typical precision of the 2-Theta values is in the range of ± 0.2° 2-Theta. Thus, a diffraction peak that appears for example at 9.4° 2-Theta can appear between 9.2 and 9.6° 2-theta on most X-ray diffractometers under standard conditions. 50 mg of pure amorphous idelalisib obtained as disclosed in Example 4b) were added to a KBr pellet die and compressed for 4.5 days at 740 MPa."}, "[5]": {"assay": "Thermal and humidity stability (XRPD analysis)", "format": "physicochemical", "description": "XRPD diffractograms were obtained with an X'Pert PRO diffractometer (PANalytical, Almelo, The Netherlands) equipped with a theta/theta coupled goniometer in transmission geometry, programmable XYZ stage with well plate holder, Cu K-alpha radiation source (wavelength 0.15418 nm) with a focusing mirror, a 0.5° divergence slit, a 0.02° soller slit collimator and a 0.5° anti-scattering slit on the incident beam side, a 2 mm anti-scattering slit, a 0.02° soller slit collimator, a Ni-filter and a solid state PIXcel detector on the diffracted beam side. The diffractogram was recorded at room temperature (25°C) at a tube voltage of 40 kV, tube current of 40 mA, applying a step size of 0.013° 2-Theta with 40 sec per step in the angular range of 2° to 40° 2-Theta. A typical precision of the 2-Theta values is in the range of ± 0.2° 2-Theta. Thus, a diffraction peak that appears for example at 9.4° 2-Theta can appear between 9.2 and 9.6° 2-theta on most X-ray diffractometers under standard conditions. 50 mg of pure amorphous idelalisib obtained as disclosed in Example 4b) were exposed to 98% relative humidity at 25°C for 5 days. […] 50 mg of pure amorphous idelalisib obtained as disclosed in Example 4b) were exposed to 75% relative humidity at 40°C for 5 days. […] 50 mg of pure amorphous idelalisib obtained as disclosed in Example 4b) were thermally stressed at 120°C and 50% relative humidity for 5 days in a sealed vial."}}}
{"smiles": "CC[C@H](Nc1ncnc2[nH]cnc12)c1nc2cccc(F)c2c(=O)n1-c1ccccc1", "note": "[Form I, (S)-2-(1-(9H-purin-6-ylamino)propyl)-5-fluoro-3-phenylquinazolin-4(3H)-one]", "values": [{"measurement": "solubility", "setting": "[1]", "result": "~70", "unit": "µg/mL"}, {"measurement": "phase conversion under pressure", "setting": "[2]", "result": "easily converts at least partially to Form II"}]}
{"smiles": "CC[C@H](Nc1ncnc2[nH]cnc12)c1nc2cccc(F)c2c(=O)n1-c1ccccc1", "note": "[pure amorphous idelalisib, (S)-2-(1-(9H-purin-6-ylamino)propyl)-5-fluoro-3-phenylquinazolin-4(3H)-one]", "values": [{"measurement": "solubility", "setting": "[3]", "result": "~415", "unit": "µg/mL"}, {"measurement": "change in the amorphous phase by XRPD after compression", "setting": "[4]", "result": "no change in the amorphous phase"}, {"measurement": "change of the amorphous form by XRPD after storage", "setting": "[5]; 75% relative humidity at 40°C for 5 days", "result": "no change of the amorphous form"}, {"measurement": "change of the amorphous form by XRPD after storage", "setting": "[5]; 98% relative humidity at 25°C for 5 days", "result": "no change of the amorphous form"}, {"measurement": "change of the amorphous form by XRPD after storage", "setting": "[5]; 120°C and 50% relative humidity for 5 days in a sealed vial", "result": "no change of the amorphous form"}]}
